The source of these data is patent US5610303A, “Arylamino pyrimidine compound” (Ube Industries, Ltd., priority 1992, dated 1997).

Format in all cases: biochemical
One assay has as its target T1, acetylcholinesterase (Rattus norvegicus, UniProt P37136).
T1 construct: a crude synaptosome fraction of a rat cerebrum was used; from tissue; host or cells: rat cerebrum, crude synaptosome fraction
Description: Acetylcholinesterase-inhibiting activity (Test example 1; crude synaptosome fraction of rat cerebrum, modified Ellman method). On the procedure:
Acetylcholinesterase-inhibiting activity
As an enzyme source, a crude synaptosome fraction of a rat cerebrum was used.
That is, to the crude synaptosome fraction of the rat cerebrum suitably diluted with a 0.1M phosphate buffer were added each compound to be tested, 5,5'-dithiobis(2-nitrobenzoic acid) (hereinafter referred to as DTNB) and acetylthiocholine as a substrate, and the mixture was incubated at 25° C. for a predetermined time.
(§1) Enzyme activity-inhibiting rates were calculated from absorbances in the presence of the compounds to be tested having various concentrations based on absorbances in the absence of the compounds to be tested, with absorbance when reaction was carried out in the absence of the substrate being defined as blank. IC50 values were calculated by Hill analysis.
Background: Ellman's reagent forms a yellow product with free thiols.

The next assay has as its target T2, butyrylcholinesterase (Rattus norvegicus, UniProt Q9JKC1).
T2 construct: As an enzyme source, a rat serum was used; from tissue; host or cells: rat serum
Description: Butyrylcholinesterase-inhibiting activity (Test example 2; rat serum, modified Ellman method). The protocol:
Butyrylcholinesterase-inhibiting activity
As an enzyme source, a rat serum was used.
The activity of butyrylcholinesterase was measured by a partially modified method of the above method of Ellman et. al. That is, to the rat serum suitably diluted with a 0.1M phosphate buffer were added each compound to be tested, DTNB and butyrylthiocholine as a substrate, and the mixture was incubated at 25° C. for a predetermined time.
as §1

The target of a further assay is T3, A type monoamine oxidase (Rattus norvegicus, UniProt P21396).
T3 construct: a rat cerebrum homogenized in a 0.1M phosphate buffer was used; from tissue; host or cells: rat cerebrum homogenate
T3 sequence (P21396 1-526): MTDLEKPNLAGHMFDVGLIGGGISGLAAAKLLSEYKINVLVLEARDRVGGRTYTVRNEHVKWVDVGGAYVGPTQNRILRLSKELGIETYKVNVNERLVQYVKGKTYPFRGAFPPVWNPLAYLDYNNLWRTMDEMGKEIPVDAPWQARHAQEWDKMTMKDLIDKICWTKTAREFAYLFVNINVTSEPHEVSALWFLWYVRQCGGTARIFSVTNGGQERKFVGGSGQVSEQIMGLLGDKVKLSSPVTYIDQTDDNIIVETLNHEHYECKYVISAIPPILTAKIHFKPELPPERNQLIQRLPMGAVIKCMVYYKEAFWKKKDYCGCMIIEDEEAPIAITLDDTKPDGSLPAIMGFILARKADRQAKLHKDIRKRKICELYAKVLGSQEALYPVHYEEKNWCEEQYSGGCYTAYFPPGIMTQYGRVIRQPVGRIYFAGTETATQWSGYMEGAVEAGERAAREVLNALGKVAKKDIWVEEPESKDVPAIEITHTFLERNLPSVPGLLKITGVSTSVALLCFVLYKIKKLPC
The assay is described as follows: A type monoamine oxidase-inhibiting activity (Test example 3; rat cerebrum homogenate, 14C-5-HT substrate). To be noted: 5-HT 200 μM, preincubated 37° C. 30 minutes, Hill analysis, read-out: IC50 value, Inhibition of A type monoamine oxidase. The protocol:
(§2) A type and B type monoamine oxidase-inhibiting activity
(§3) As an enzyme source, a rat cerebrum homogenized in a 0.1M phosphate buffer was used.
(§4) That is, the rat cerebrum homogenate suitably diluted with a 0.1M phosphate buffer and each compound to be tested were preincubated at 37° C. for 30 minutes. […] After the mixture was separated into two layers by centrifugation, a part of the organic layer was mixed with liquid scintillation cocktail. Radioactivity extracted into the organic layer was measured by a liquid scintillation counter to calculate the enzyme activity.
(§5) Inhibiting rates were calculated from enzyme activities in the presence of the compounds to be tested having various concentrations based on enzyme activities in the absence of the compounds to be tested, with absorbance when reaction was carried out in the absence of the homogenate being defined as blank. IC50 values were calculated by Hill analysis.

The target of the next assay is T4, B type monoamine oxidase (Rattus norvegicus, UniProt P19643).
T4 construct: a rat cerebrum homogenized in a 0.1M phosphate buffer was used; from tissue; host or cells: rat cerebrum homogenate
T4 sequence (P19643 1-520): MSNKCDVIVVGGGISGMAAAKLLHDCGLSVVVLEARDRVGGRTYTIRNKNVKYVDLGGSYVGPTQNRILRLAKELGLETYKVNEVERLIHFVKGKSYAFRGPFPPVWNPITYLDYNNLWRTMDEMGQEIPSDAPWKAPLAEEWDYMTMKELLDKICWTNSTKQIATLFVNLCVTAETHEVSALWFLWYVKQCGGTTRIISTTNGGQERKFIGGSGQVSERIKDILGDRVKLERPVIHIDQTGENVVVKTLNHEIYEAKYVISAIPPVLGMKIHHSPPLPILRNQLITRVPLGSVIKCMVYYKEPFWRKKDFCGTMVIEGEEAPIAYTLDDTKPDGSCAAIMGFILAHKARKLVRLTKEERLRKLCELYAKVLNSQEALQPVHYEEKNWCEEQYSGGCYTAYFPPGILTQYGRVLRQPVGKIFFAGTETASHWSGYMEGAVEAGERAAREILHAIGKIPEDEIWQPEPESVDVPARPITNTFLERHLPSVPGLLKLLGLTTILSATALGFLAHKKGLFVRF
The assay is described as follows: B type monoamine oxidase-inhibiting activity (Test example 3; rat cerebrum homogenate, 14C-β-PEA substrate). To be noted: β-PEA 20 μM, preincubated 37° C. 30 minutes, Hill analysis, read-out: IC50 value, Inhibition of B type monoamine oxidase. The protocol: as §2, §3, §4, §5

Where only a bound is given, the exact number is not on record here.

As usually defined, the IC50 is the point on the concentration scale where inhibition reaches its midpoint.

T1 sequence (P37136 32-614): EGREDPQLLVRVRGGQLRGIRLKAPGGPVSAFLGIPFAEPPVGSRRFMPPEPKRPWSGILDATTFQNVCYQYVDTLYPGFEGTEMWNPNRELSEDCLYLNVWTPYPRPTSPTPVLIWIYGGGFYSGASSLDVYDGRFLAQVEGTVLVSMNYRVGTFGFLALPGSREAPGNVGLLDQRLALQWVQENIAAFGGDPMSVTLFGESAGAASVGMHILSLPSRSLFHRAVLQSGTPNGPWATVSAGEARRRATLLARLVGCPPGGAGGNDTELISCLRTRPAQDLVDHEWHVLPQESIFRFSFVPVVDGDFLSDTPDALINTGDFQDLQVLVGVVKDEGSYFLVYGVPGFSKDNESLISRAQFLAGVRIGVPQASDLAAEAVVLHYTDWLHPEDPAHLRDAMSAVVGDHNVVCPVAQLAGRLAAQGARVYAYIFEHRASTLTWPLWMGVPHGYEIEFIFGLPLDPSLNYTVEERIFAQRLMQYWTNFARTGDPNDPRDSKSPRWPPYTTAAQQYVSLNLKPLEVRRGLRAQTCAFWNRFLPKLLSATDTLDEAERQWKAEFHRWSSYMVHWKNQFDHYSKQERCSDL
T2 sequence (Q9JKC1 24-597): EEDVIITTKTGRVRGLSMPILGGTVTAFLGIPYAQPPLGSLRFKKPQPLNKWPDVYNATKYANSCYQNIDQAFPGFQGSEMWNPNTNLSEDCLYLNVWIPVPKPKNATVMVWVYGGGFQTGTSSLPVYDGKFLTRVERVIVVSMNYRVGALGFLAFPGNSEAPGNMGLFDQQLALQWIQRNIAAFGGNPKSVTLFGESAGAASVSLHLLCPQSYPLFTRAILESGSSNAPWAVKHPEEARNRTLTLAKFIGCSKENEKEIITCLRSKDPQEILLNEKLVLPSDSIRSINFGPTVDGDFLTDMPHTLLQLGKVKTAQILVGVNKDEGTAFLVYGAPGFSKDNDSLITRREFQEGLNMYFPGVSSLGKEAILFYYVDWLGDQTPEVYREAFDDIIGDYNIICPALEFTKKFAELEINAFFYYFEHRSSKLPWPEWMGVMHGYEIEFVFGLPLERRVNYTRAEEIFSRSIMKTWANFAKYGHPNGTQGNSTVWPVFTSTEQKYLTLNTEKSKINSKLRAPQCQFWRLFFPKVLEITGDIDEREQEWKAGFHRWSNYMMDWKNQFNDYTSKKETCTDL

As to `N#Cc1ccc(Nc2ncnc3c2CCC3)cc1` [Compound B, 4-(4-cyanoanilino)-5,6-dihydro-7H-cyclopenta[d]pyrimidine, reference compound], the 50% inhibitory concentration (IC50) against acetylcholinesterase is over 10 µM; against butyrylcholinesterase, over 10 µM; on A type monoamine oxidase it was 0.16 µM; at B type monoamine oxidase, over 10 µM.

Regarding `Cc1ncnc(Nc2ccc(C(=O)/C=C/C3CCN(Cc4ccccc4)CC3)cc2)c1C` [Example 1, (E)-N-(5,6-dimethylpyrimidin-4-yl)-4-[3-(1-benzyl-piperidin-4-yl)propenoyl]aniline], the half-inhibitory concentration (IC50) was 0.0033 µM against acetylcholinesterase, over 10 µM against butyrylcholinesterase, 1.6 µM at A type monoamine oxidase and over 10 µM at B type monoamine oxidase.

`Cc1ncnc(Nc2ccc(C(=O)CCC3CCN(Cc4ccccc4)CC3)cc2)c1C` [Example 2, N-(5,6-dimethylpyrimidin-4-yl)-4-[3-(1-benzylpiperidin-4-yl)propanoyl]aniline]: the IC50 is 0.0036 µM against acetylcholinesterase, over 10 µM on butyrylcholinesterase, 0.89 µM on A type monoamine oxidase and over 10 µM on B type monoamine oxidase.

In the case of `O=C(/C=C/C1CCN(Cc2ccccc2)CC1)c1ccc(Nc2ncnc3c2CCC3)cc1` [Example 6, (E)-N-(5,6-dihydro-7H-cyclopenta[d]pyrimidin-4-yl)-4-[3-(1-benzylpiperidin-4-yl)propenoyl]aniline], the IC50 at acetylcholinesterase is 0.0031 µM; at butyrylcholinesterase it was over 10 µM; on A type monoamine oxidase it was 0.22 µM; on B type monoamine oxidase it was over 10 µM.

Turning to `O=C(CCC1CCN(Cc2ccccc2)CC1)c1ccc(Nc2ncnc3c2CCC3)cc1` [Example 8, N-(5,6-dihydro-7H-cyclopenta[d]pyrimidin-4-yl)-4-[3(1-benzylpiperidin-4-yl)propanoyl]aniline. 2HCl], the half-inhibitory concentration (IC50) against acetylcholinesterase is 0.002 µM; at butyrylcholinesterase, over 10 µM; on A type monoamine oxidase, 0.085 µM; at B type monoamine oxidase, over 10 µM.

On to `O=C(/C=C/C1CCN(Cc2ccccc2)CC1)c1ccc(Nc2ncnc3c2CCCC3)cc1` [Example 9, (E)-N-(5,6,7,8-tetrahydroquinazolin-4-yl)-4-[3-(1-benzylpiperidin-4-yl)propenoyl]aniline], for which the concentration for half-maximal inhibition (IC50) against acetylcholinesterase was 0.0014 µM; against butyrylcholinesterase it was over 10 µM; at A type monoamine oxidase it was 1.4 µM; at B type monoamine oxidase, over 10 µM.

With `O=C(CCC1CCN(Cc2ccccc2)CC1)c1ccc(Nc2ncnc3c2CCCC3)cc1` [Example 10, N-(5,6,7,8-tetrahydroquinazolin-4-yl)-4-[3-(1-benzyl-piperidin-4-yl)propanoyl]aniline], the IC50 was 0.0011 µM against acetylcholinesterase, over 10 µM at butyrylcholinesterase, 0.32 µM on A type monoamine oxidase and over 10 µM at B type monoamine oxidase.

On to `O=C1C(=CC2CCN(Cc3ccccc3)CC2)Cc2cc(Nc3ncnc4c3CCC4)ccc21` [Example 21, 4-[1-Oxo-2-(1-benzylpiperidin-4-yl)methyleneindan-5-yl]amino-5,6-dihydro-7H-cyclopenta[d]pyrimidine], for which the IC50 on acetylcholinesterase is 0.02 µM; on butyrylcholinesterase, over 10 µM; at A type monoamine oxidase, 0.6 µM; at B type monoamine oxidase, over 10 µM.

For the molecule `O=C1c2ccc(Nc3ncnc4c3CCC4)cc2CC1CC1CCN(Cc2ccccc2)CC1` (stereo not drawn) [Example 22, 4-[1-Oxo-2-(1-benzylpiperidin-4-yl)methylindan-5-yl]amino-5,6-dihydro-7H-cyclopenta[d]pyrimidine], the IC50 against acetylcholinesterase is 0.0073 µM; on butyrylcholinesterase, over 10 µM; on A type monoamine oxidase, 0.81 µM; on B type monoamine oxidase, over 10 µM.

For `Cc1cncnc1Nc1ccc(C(=O)CC2CCN(Cc3ccccc3)CC2)cc1` [Example 25, N-(5-methylpyrimidin-4-yl)-4-[(1-benzylpiperidin-4-yl)acetyl]aniline], the IC50 is 0.25 µM on acetylcholinesterase, over 10 µM against butyrylcholinesterase, 0.34 µM at A type monoamine oxidase and 6.8 µM on B type monoamine oxidase.

With `O=C(CC1CCN(Cc2ccccc2)CC1)c1ccc(Nc2ncnc3c2CCC3)cc1` [Example 26, N-(5,6-dihydro-7H-cyclopenta[d]pyrimidin-4-yl)-4-[(1-benzylpiperidin-4-yl)acetyl]aniline], the IC50 is 0.15 µM against acetylcholinesterase, over 10 µM on butyrylcholinesterase, 0.056 µM on A type monoamine oxidase and over 10 µM on B type monoamine oxidase.

Consider `O=C(CCC1CCN(Cc2ccccn2)CC1)c1ccc(Nc2ncnc3c2CCC3)cc1` [Example 53, N-(5,6-dihydro-7H-cyclopenta-[d]pyrimidin-4-yl)-4-{3-[1-(2-pyridylmethyl)piperidin-4-yl]-propanoyl}aniline], for which the 50% inhibitory concentration (IC50) against acetylcholinesterase was 0.017 µM; against butyrylcholinesterase it was over 10 µM; on A type monoamine oxidase, 0.085 µM; at B type monoamine oxidase, over 10 µM.

Turning to `O=C(CC1CCN(Cc2cccs2)CC1)c1ccc(Nc2ncnc3c2CCC3)cc1` [Example 87, N-(5,6-dihydro-7H-cyclopenta-[d]pyrimidin-4-yl)-4-{[1-(2-thienylmethyl)piperidin-4-yl]-acetyl}aniline], the IC50 against acetylcholinesterase was 0.27 µM; on butyrylcholinesterase, over 10 µM; on A type monoamine oxidase it was 0.035 µM; at B type monoamine oxidase, over 10 µM.

Consider `Cc1cncnc1Nc1ccc(C(=O)CC2CCN(Cc3cccs3)CC2)cc1` [Example 88, N-(5-methylpyrimidin-4-yl)-4-{[1-(2-thienylmethyl)piperidin-4-yl]acetyl}aniline], for which the IC50 at acetylcholinesterase was 0.33 µM; at butyrylcholinesterase it was over 10 µM; on A type monoamine oxidase, 0.25 µM; at B type monoamine oxidase, 2.1 µM.

For `CCc1cncnc1Nc1ccc(C(=O)CC2CCN(Cc3ccccc3)CC2)cc1` [Example 93, N-(5-ethylpyrimidin-4-yl)-4-[(1-benzylpiperidin-4-yl)-acetyl]aniline], the concentration for half-maximal inhibition (IC50) against acetylcholinesterase is 0.2 µM; against butyrylcholinesterase, over 10 µM; at A type monoamine oxidase, 0.42 µM; on B type monoamine oxidase, 7.2 µM.
